The text below walks through data of patent publication US20220226291A1, “Combination Treatment of Cancer Using Sulfonamide Compound and Immune Regulator” (Taiho Pharmaceutical Co., Ltd, priority 2019, published 2022).

The nature of data set [1]: Body weight changes in MC38 colon cancer cell-transplanted mouse models. Type of data set: in vivo. The method, then: Body weights were measured using an electronic balance for animals. Body weight changes (BWCn) on the n^th day were determined based on the body weight measured on the n^th day (BWn) in accordance with the following formula.
(§1) An aqueous solution of 0.5% Hypromellose was prepared by adding an adequate amount of an injection solvent (Japanese Pharmacopoeia) to and dissolving Hypromellose at a concentration of 0.5 w/v %. Compound 1, synthesized in accordance with the method disclosed in WO 2017/209155, was grounded in an agate mortar, suspended at a given concentration in the aqueous solution of 0.5% Hypromellose, and then ultrasonically treated to obtain a homogeneous suspension. The resulting suspension was orally administered as Compound 1 once a day for continuous 14 days at 25 mg/kg/day or 50 mg/kg/day. To the control group, the aqueous solution of 0.5% Hypromellose was orally administered once a day for continuous 14 days.
(§2) As an anti-mouse PD-1 antibody (anti-mPD-1 Ab), CD279 (PD-1) Monoclonal Antibody (RMP1-14), eBioscience (Thermo Fisher Scientific) was diluted to a given concentration with PBS immediately before administration. On the first day of administration (Day 1), the anti-mouse PD-1 antibody was administered intraperitoneally at 0.05 mg/body.

The subject of data set [2] is MC38 mouse colon cancer cells. As to the kind of experiment: Antitumor effect in MC38 colon cancer cell-transplanted mouse models (tumor volume). Type of data set: in vivo. Particulars: for T/C (%): Day 15; for TV on Day 15 (mm^3, mean ± SE): MC38 s.c. in C57BL/6NCrl mice, n=10. The method, then:
The mouse colon cancer cell strain MC38 was obtained from Dr. Yoshihiro Hayakawa (University of Toyama, Toyama, Japan). The MC38 cell strain was subjected to culture in an RPMI 1640 medium containing 10% fetal bovine serum and then to subculture in an incubator at 37° C. in the presence of 5% CO2 at a frequency of once or twice a week.
The MC38 cell suspension was transplanted subcutaneously at 1×10^6 cells/0.1 ml to the right chest of 6-week-old C57BL/6NCrl mice (Charles River Laboratories Japan, Inc.).
After transplantation, tumors were allowed to grow to reach the tumor volume (TV) of 50 to 300 mm^3. The longer diameter and the shorter diameter of the tumor were measured using a Digimatic caliper and the tumor volume (TV) was calculated in accordance with the following formula.
The animals were divided into groups each consisting of 10 individuals by stratified random allocation using TV as the indicator. The day on which grouping (n=10) was performed was designated as Day 0.
Tumor volume changes (T/C) were calculated based on TV on the final day of evaluation (Day 15).
as §1, §2

A further data set addresses T1, RNR (Homo sapiens, UniProt P31350).
T1 sequence (P31350 1-389): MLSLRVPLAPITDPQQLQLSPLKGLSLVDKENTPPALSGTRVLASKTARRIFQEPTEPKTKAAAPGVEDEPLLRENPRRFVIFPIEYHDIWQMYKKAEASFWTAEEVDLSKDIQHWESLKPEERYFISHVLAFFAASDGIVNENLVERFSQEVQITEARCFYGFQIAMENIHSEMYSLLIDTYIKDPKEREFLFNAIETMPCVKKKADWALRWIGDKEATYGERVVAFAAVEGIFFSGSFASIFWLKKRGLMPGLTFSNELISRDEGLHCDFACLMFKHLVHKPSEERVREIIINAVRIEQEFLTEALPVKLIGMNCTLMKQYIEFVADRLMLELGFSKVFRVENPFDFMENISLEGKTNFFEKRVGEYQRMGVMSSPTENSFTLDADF
The following applies: Non-Patent Literature 7; cited from earlier work.

For data set [3] the following is noted: Non-Patent Literature 10; cited from earlier work.
[4] abbreviates: Compound 1 25 mg/kg/day p.o. days 1-14.
The mark [5] stands for this setting: Compound 1 50 mg/kg/day p.o. days 1-14.

Regarding `Cc1ccc(F)c([C@@H](C)[C@H](NS(=O)(=O)c2ccc(Cl)cc2C(N)=O)c2n[nH]c(=O)o2)c1C` [Compound 1, 5-Chloro-2-(N-((1S,2R)-2-(6-fluoro-2,3-dimethylphenyl)-1-(5-oxo-4,5-dihydro-1,3,4-oxadiazol-2-yl)propyl)sulfamoyl)benzamide], the entries for the “BWC on Day 15 (%, mean ± SE)” value in data set [1] (setting [4]) and in data set [1] (setting [5]) were 4.0 ± 0.7% and 4.9 ± 1.0%, respectively. In addition, the results for the “T/C (%)” value in data set [2] (setting [4]) and in data set [2] (setting [5]) were 91.9% and 29.7%, respectively. In addition, the results for the “TV on Day 15 (mm^3, mean ± SE)” value in data set [2] (setting [4]) and in data set [2] (setting [5]) were 868 ± 182 mm^3 and 306 ± 79 mm^3, respectively. Also, the “TV on Day 15 compared with the control group (Dunnett's test)” value in data set [2] (Compound 1 at 50 mg/kg/day alone) is listed as “significantly lower”.
Regarding `NC(=O)NO` [HU, hydroxyurea], the RNR inhibitory activity result at RNR is “very weak”.
For `NC(=S)NN=Cc1ncccc1N` [Compound 3-AP, 3-aminopyridine-2-carboxaldehyde thiosemicarbazone], the “Side effects caused in clinical cases” value in data set [3] was “hypoxia, dyspnea, methemoglobinemia”.
